Measurements reported in patent US20070099911A1, “Pyrroloquinolinone derivatives as 5-hydroxytryptamine-6 ligands” (Wyeth, priority 2005, published 2007).
Counter-ions that a name gives are not always drawn.

Target: T1, human cloned 5-HT6 receptors (Homo sapiens, UniProt P50406)
T1 construct: expressed in transfected cells; host or cells: HeLa cells (membrane preparation)
Assay: Comparative evaluation of 5-HT6 binding affinity ([3H]-LSD displacement, Hela cell membranes)
Conditions: not given
Description: Comparative Evaluation of 5-HT6 Binding Affinity of Test Compounds
The affinity of test compounds for the 5-HT6 receptor is evaluated in the following manner. Cultured Hela cells expressing human cloned 5-HT6 receptors are harvested and centrifuged at low speed (1,000×g) for 10.0 min to remove the culture media. The harvested cells are suspended in half volume of fresh physiological phosphate buffered saline (PBS) solution and recentrifuged at the same speed. This operation is repeated. The collected cells are then homogenized in ten volumes of 50 mM Tris.HCl (pH 7.4) and 0.5 mM EDTA. The homogenate is centrifuged at 40,000×g for 30.0 min, and the precipitate is collected. The obtained pellet is resuspended in 10 volumes of Tris.HCl buffer and recentrifuged at the same speed. The final pellet is suspended in a small volume of Tris.HCl buffer, and the tissue protein content is determined in aliquots of 10-25 microliter volumes. Bovine Serum Albumin is used as the standard in the protein determination according to the method described in Lowry et al., J. Biol. Chem. 1951, 193, 265. The volume of the suspended cell membranes is adjusted to give a tissue protein concentration of 1.0 mg/ml of suspension. The prepared membrane suspension (10 times concentrated) is aliquoted in 1.0 ml volumes and stored at −70° C. until used in subsequent binding experiments.
The reaction is allowed to proceed in the dark for 120 min at room temperature, at which time, the bound ligand-receptor complex is filtered off on a 96-well unifilter with a Packard Filtermate® 196 Harvester. The bound complex caught on the filter disk is allowed to air dry, and the radioactivity is measured in a Packard TopCount® equipped with six photomultiplier detectors, after the addition of 40.0 micoliters Micorscint®-20 scintillant to each shallow well. The unifilter plate is heat-sealed and counted in a Packard TopCount® with a tritium efficiency of 31%.
Specific binding to eh 5-HT6 receptor is defined as the total radioactivity bound less the amount bound in the presence of […] unlabelled methiothipin. Binding in the presence of varying concentrations of test compound is expressed as a percentage of specific binding in the absence of test compound. The results are plotted as log % bound versus log concentration of the test compound. […] A linear regression is plotted, from which the IC50 value is determined, and the Ki value is determined based upon the following equation: Ki=IC50/(1+L/KD) where L is the concentration of the radioactive ligand used and KD is the dissociation constant of the ligand for the receptor, both expressed in nM.

T1 sequence (P50406 whole entry): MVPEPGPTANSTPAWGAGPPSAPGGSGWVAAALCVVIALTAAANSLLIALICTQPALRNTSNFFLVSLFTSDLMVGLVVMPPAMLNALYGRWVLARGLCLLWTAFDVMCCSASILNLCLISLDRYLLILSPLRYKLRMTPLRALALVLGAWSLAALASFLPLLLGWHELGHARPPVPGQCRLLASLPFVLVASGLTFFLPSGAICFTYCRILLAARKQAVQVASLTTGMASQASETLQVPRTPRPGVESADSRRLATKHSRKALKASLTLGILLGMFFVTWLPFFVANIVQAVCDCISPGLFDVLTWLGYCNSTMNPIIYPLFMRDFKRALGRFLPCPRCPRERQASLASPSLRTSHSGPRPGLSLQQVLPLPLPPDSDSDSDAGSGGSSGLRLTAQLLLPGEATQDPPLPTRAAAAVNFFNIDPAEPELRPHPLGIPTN

| SMILES | Ki [nM] |
| --- | --- |
| CNCCc1c[nH]c2ccc3c(=O)[nH]ccc3c12 [Example 1021, 1-(2-methylaminoethyl)-3H,7H-pyrrolo[3,2-f]isoquinolin-6-one] | 21 |
| Cn1ccc2c(ccc3[nH]cc(CCN)c32)c1=O [Example 94] | 18 |
| NCCc1c[nH]c2ccc3c(=O)n(Cc4ccccc4)cnc3c12 [Example 1029] | 32 |
| NCCc1c[nH]c2ccc3c(=O)n(Cc4ccsc4)ccc3c12 [Example 274, 1-(2-aminoethyl)-7-thiophen-3-ylmethyl-3H,7H-pyrrolo[3,2-f]isoquinolin-6-one] | 11 |
| NCCc1c[nH]c2ccc3c(=O)n(CC4CCCCC4)ccc3c12 [Example 269, 1-(2-aminoethyl)-7-cyclohexylmethyl-3H,7H-pyrrolo[3,2-]isoquinolin-6-one] | 13 |
| NCCc1c[nH]c2ccc3c(=O)n(Cc4ccccc4)ccc3c12 [Example 182] | 11 |

Same assay, conditions: [3H]-LSD displacement, membranes of Hela cells expressing human cloned 5-HT6 receptors; read-out: 5-HT6 binding Ki

| Ki [nM] | SMILES |
| --- | --- |
| 15 | O=c1[nH]ccc2c3c(ccc12)N=CC3CCNCc1ccccc1 (stereo not shown) [Example 7A, 1-(2-Benzylaminoethyl)-6,7-dihydro-1H-pyrrolo[3,2-f]isoquinolin-6-one] |

Test system: not given
Assay: not given
Conditions: not given

| melting point | SMILES |
| --- | --- |
| 260 to 262 °C | NCCc1c[nH]c2ccc3c(=O)n(CC4CCCCO4)ccc3c12 (stereo not shown) (as salt: hydrochloride) |
| > 300 °C | NCCc1c(-c2ccc(Cl)cc2)[nH]c2ccc3c(=O)[nH]ccc3c12 (as salt: hydrochloride) [Example 278, 1-(2-aminoethyl)-2-(4-chlorophenyl)-3H,7H-pyrrolo[3,2-f]isoquinolin-6-one] |
| > 280 °C | NCCc1c[nH]c2ccc3c(=O)[nH]ccc3c12 (as salt: hydrochloride) |
| 250 to 253 °C | O=c1[nH]ccc2c1ccc1[nH]cc(CCN(Cc3ccccc3)Cc3ccccc3)c12 (as salt: HCl) |
| 205 to 208 °C | Cn1ccc2c(ccc3[nH]cc(CCNCCc4ccccc4)c32)c1=O (as salt: HCl) [Example 95, 7-methyl-1-(2-phenethylaminoethyl)-3H,7H-pyrrolo[3,2-f]isoquinolin-6-one] |
| > 250 °C | NCCc1c[nH]c2ccc3c(=O)n(Cc4ccccc4F)ccc3c12 (as salt: hydrochloride) |
| 205 to 206 °C | O=c1c2ccc3[nH]cc(CCNS(=O)(=O)c4ccccc4)c3c2ccn1Cc1ccccc1 [Example 1022, N-[2-(7-benzyl-6-oxo-6,7-dihydro-3H-pyrrolo[3,2-f]isoquinolin-1-yl)-ethyl]-benzenesulfonamide] |
| 279 to 285 °C | Cn1cnc2c(ccc3[nH]cc(CCN)c32)c1=O |
| 225 to 230 °C | NCCCc1c[nH]c2ccc3c(=O)[nH]ccc3c12 (as salt: hydrochloride) [Example 268, 1-(3-aminopropyl)-3H,7H-pyrrolo[3,2-f]isoquinolin-6-one] |
| 210 °C | O=c1[nH]ccc2c3c(ccc12)N=CC3CCNCc1ccccc1 (stereo not shown) (as salt: HCl) [Example 7A, 1-(2-Benzylaminoethyl)-6,7-dihydro-1H-pyrrolo[3,2-f]isoquinolin-6-one] |
| 224 to 227 °C | CCn1ccc2c(ccc3[nH]cc(CCN)c32)c1=O (as salt: hydrochloride) |
| 234 to 236 °C | O=c1c2ccc3c(c(CCN(Cc4ccccc4)Cc4ccccc4)cn3Cc3ccccc3)c2ccn1Cc1ccccc1 (as salt: HCl) [Example 1018, 3,7-dibenzyl-1-(2-dibenzylaminoethyl)-3H,7H-pyrrolo[3,2-f]isoquinolin-6-one] |
| 252 °C (dec.) | NCCc1c(Br)[nH]c2ccc3c(=O)[nH]ccc3c12 (as salt: HBr) |
| 152 to 155 °C | CN(CCc1c[nH]c2ccc3c(=O)[nH]ccc3c12)Cc1ccccc1 (as salt: hydrochloride) |
| 247 to 249 °C | NCCc1c[nH]c2ccc3c(=O)n(Cc4ccc(F)cc4)ccc3c12 (as salt: hydrochloride) |
| 162 to 166 °C | NCCc1c[nH]c2ccc3c(=O)n(CCc4ccccc4)ccc3c12 (as salt: hydrochloride) |

| SMILES | melting point |
| --- | --- |
| Cn1ccc2c(ccc3[nH]cc(CCN)c32)c1=O (as salt: hydrochloride) [Example 94] | 295 to 298 °C |
| NCCc1c[nH]c2ccc3c(=O)n(Cc4ccccc4)ccc3c12 (as salt: hydrochloride) [Example 182] | 266 to 268 °C |
| NCCc1c[nH]c2ccc3c(=O)n(CC4CCCCC4)ccc3c12 (as salt: hydrochloride) [Example 269, 1-(2-aminoethyl)-7-cyclohexylmethyl-3H,7H-pyrrolo[3,2-]isoquinolin-6-one] | 220 to 224 °C |
| NCCc1c[nH]c2ccc3c(=O)n(Cc4ccccc4)cnc3c12 [Example 1029] | 302 to 305 °C |
| CNCCc1c[nH]c2ccc3c(=O)[nH]ccc3c12 (as salt: HCl) [Example 1021, 1-(2-methylaminoethyl)-3H,7H-pyrrolo[3,2-f]isoquinolin-6-one] | 160 °C |
